Laboratory results as given in patent US5573908A, “Adrenergic receptor as a proto-oncogene” (Duke University, priority 1993, dated 1996).
pKi: −log10 of the molar value. “And” between values parts separate entries of the source, which are not always exact repeats. Equal entries are not always repeated.

What was measured:
α1B ADR = target: T1, α1B ADR (Mesocricetus auratus, UniProt P18841); assay: Ligand binding on membranes of RAT-1 fibroblast cell lines expressing the α1B ADR; parameters: species or system hamster; details: competition with 100 pM [125I] HEAT; membranes, two clones; read-out: NE Ki
T1 construct: expressed in transfected cells; host or cells: RAT-1 fibroblasts (vector pZIP-NeoSV(X)1), focus-derived, G418-selected lines
T1 sequence (P18841 1-515): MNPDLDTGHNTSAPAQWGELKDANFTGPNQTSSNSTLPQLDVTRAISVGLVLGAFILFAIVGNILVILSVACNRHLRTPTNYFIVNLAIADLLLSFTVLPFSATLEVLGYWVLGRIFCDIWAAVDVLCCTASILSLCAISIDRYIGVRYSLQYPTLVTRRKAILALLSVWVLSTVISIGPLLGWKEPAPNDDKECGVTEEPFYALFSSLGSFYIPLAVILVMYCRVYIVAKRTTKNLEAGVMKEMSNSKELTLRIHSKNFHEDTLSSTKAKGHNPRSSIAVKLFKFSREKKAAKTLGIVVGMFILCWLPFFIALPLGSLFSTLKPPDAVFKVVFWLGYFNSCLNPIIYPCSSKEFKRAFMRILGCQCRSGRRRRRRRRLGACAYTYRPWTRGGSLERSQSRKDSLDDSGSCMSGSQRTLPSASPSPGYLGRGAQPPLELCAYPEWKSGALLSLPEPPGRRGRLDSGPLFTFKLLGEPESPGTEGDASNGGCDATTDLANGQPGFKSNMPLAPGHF
Experimental: In Table 3, RAT-1 fibroblast cell lines transfected with expression vector alone or derived from transformed foci (α1B ADR or α1B ADR mutant) were selected with G418 (300 μg/ml). Ligand binding was performed on membranes prepared from two clones of each in accordance with known techniques (S. Cotecchia et al., Life Sci. 37, 2389 (1986)). For saturation binding analysis, [^125 ] HEAT concentrations ranged from 10 to 500 pM, nonspecific binding was determined using 1 μM prazosin; in competition experiments, the radioligand concentration was 100 pM. Ligand binding parameters were determined using computerized iterative nonlinear regression analysis (P. Munson, Methods in Enzymol. 92, 5432 (1983)). For assessment of receptor coupling to PI hydrolysis, cells were plated in 30 mm dishes, and labeled overnight with 3 μCi/ml of myo-[2-^3 II(N)]-inositol (1Ci=37 GBq; NEN Research Products) in DMEM containing 3.3% FBS in accordance with known techniques (S. Cotecchia et al., Proc. Natl. Acad. Sci. USA 87, 2896 (1990)). After 40 minute stimulation of cells with 10 μM norepinephrine (NE), inositol phosphates were extracted, and separated on AG 1-X8 anion exchange columns (BioRad Labs) in accordance with known techniques (S. Cotecchia et al., Proc. Natl. Acad. Sci. USA 87, 2896 (1990)). Total inositol phosphates were eluted with 1M ammonium formate/0.1M formic acid. Rmax indicates the percentage increase of total labeled inositol phosphates over basal levels following NE stimulation.

[1] = NE stimulated PI hydrolysis in RAT-1 cell lines transfected with vector alone; assay type: cell-based; details: 40 min, 10 μM NE, 40 minute, two clones, read-out: NE Stimulated PI Hydrolysis Rmax
Source text: In cell lines expressing the α1B -ADR mutant, NE induced a 900 to 1000% increase in inositol phosphates (Table 3); this level of PI hydrolysis was only seen in cells expressing the wild type receptor with a two fold higher level of receptor expression. […] The α1B -ADR, appearing on the surface of RAT-1 fibroblasts following transfection, therefore, functionally couples to PI hydrolysis in these cells. Whether receptor coupling to PLC actually mediates the α1B -ADR's ability to induce malignant transformation in these cells, however, remains speculative. Coupling of this receptor to alternate G proteins or effector systems may be responsible for triggering uncontrolled cell proliferation.
In Table 3, RAT-1 fibroblast cell lines transfected with expression vector alone or derived from transformed foci (α1B ADR or α1B ADR mutant) were selected with G418 (300 μg/ml). Ligand binding was performed on membranes prepared from two clones of each in accordance with known techniques (S. Cotecchia et al., Life Sci. 37, 2389 (1986)). For saturation binding analysis, [^125 ] HEAT concentrations ranged from 10 to 500 pM, nonspecific binding was determined using 1 μM prazosin; in competition experiments, the radioligand concentration was 100 pM. Ligand binding parameters were determined using computerized iterative nonlinear regression analysis (P. Munson, Methods in Enzymol. 92, 5432 (1983)). […]

NC[C@H](O)c1ccc(O)c(O)c1 [NE, norepinephrine]
pKi (α1B ADR): 5.24 and 5.27 | activation at 10 µM [1]: 0%
